For assay [1], the system named is RENCA cells. The assay is described as follows: Intratumoral transfer of luciferase plasmid pTG11236 with HPC into RENCA tumors, luciferase measurement. The class given is in vivo. To be noted: RENCA tumors in B6D2 mice; 50 μl intratumoral, 0.4, 2 or 10 μg plasmid pTG11236 with 2 mg/ml HPC; 24 hours after last injection; compared with no HPC. Here is the method: (§1) FIG. 1: show the effect of hexadecylphosphocholine (HPC) on intratumoral transfer of the luciferase-plasmid (pTG11236) into RENCA cells. Bars are means of RLU per minute per mg protein. Luciferase activity was measured 24 hours after the last injection of 50 μl of a composition, comprising between 0.4, 2 or 10 μg of plasmid and 2 mg/ml of HPC, into B6D2 mice. Plasmid DNA (pTG11236: CMV promoter, β-globin intron, luciferase cassette, 5739 base pairs) was prepared according to Bischoff et al., Analytical Biochemistry 254 (1997), 69-81. RENCA or P815 cells were injected under the skin of 6 to 8 week old B6D2 female mice (3 10^5 cells/animal). Eleven days after the injection of the cells, palpable tumours appear. Prior to intratumoral injection HPC was mixed with the plasmid DNA preparation Then, various quantities of plasmid and HPC were directly injected into the tumor three times (with three day-time interval between subsequent injection). Twenty four hours after injection of the composition, the mice were killed and the tumors were retrieved and frozen. Luciferase activity was quantified on whole tumor extracts using a conventional measurement kit (Luciferase Assay System, Promega). […] Luciferase activity was expressed as number of RLU emitted per minute, per mg of protein. Protein was measured on 10 μl samples using a VCA Protein Assay kit (Pierce).

Assay [2] deals with P815 cells. The assay is described as follows: Intratumoral transfer of luciferase plasmid pTG11236 with HPC into P815 tumors, luciferase measurement. The class given is in vivo. To be noted: P815 tumors in B6D2 mice; 50 μl intratumoral, 10 μg plasmid pTG11236 with 0.4 mg/ml HPC; 24 hours after last injection; compared with no HPC. How it is done:
as §1, with “FIG. 2:” for “FIG. 1:”, “of HPC” for “of hexadecylphosphocholine (HPC)”, “into P815” for “into RENCA”, “comprising” for “comprising between 0.4, 2 or”, “and 0.4” for “and 2”, “Promega). Briefly, tumors were diluted in 200 μl of reporter lysis buffer (Promega).” for “Promega).”

SMILES strings stand for the structures.

As for `CCCCCCCCCCCCCCCCOP(=O)([O-])OCC[N+](C)(C)C` [HPC, hexadecylphosphocholine], the “Luciferase activity of the injected tumors (RLU per minute per mg protein)” value in assay [1] and in assay [2] was “higher” each time.

For the origin of these results see patent US20050152959A1, “Use of a lysolipid for the preparation of a composition for transfection of a polynucleotide into a cell” (Transgene S. A., priority 2001, published 2005).
